Experimental data from article PMC7587601, “A Rose Extract Protects the Skin against Stress Mediators: A Potential Role of Olfactory Receptors” (Molecules, 2020).

Legend:
Assay type in all cases: cell-based, human
Settings in all cases: epinephrine 56 nM alone, 9 days
[1] = system: loricrin; assay: Epinephrine-induced stress model in skin explants, loricrin immunostaining
Experimental: (§1) To study the potential involvement of ORs in skin response to chronic stress, an ex vivo epinephrine-induced stress model was designed. Three different markers, known to increase under stress conditions, were measured to estimate the stress response of skin (Figure 3A). G6PDH was used as a marker for cell metabolism, loricrin for cell differentiation, and γH2AX for DNA damage.
(§2) For immunohistochemical staining on human skin, 5-μm-thick sections were made. The same primary antibodies were used (anti-OR10A6 (1:200; Abcam, #ab129837), anti-OR11H4 (1:200; ThermoFisher, #PA5-562685), anti-OR2AG2 (1:100; ThermoFisher, #PA5-538166)). […] Image processing was performed using ImageJ 2.0 software. For primary G6PDH (1:100 dilution; Sigma Aldrich, St. Louis, MO, USA, #HPA000247), loricrine (1:1600 dilution; Covance, Princeton, NJ, USA, #PRB-145P), γH2AX (1:800; Abcam, Cambridge, UK, #ab26350) antibodies staining, tissue cryosections were […] and immunostaining was performed using an automated slide processing system (Autostainer Dako, Agilent, Santa Clara, CA, USA). […] Microscopical observations were realized using an Olympus BX43 microscope. Photographs were digitized with a numeric DP72 Olympus camera and CellD storing software (Waltham, MA, USA). The detailed protocols were described in the supplementary materials. […]

[2] = system: γH2AX; assay: Epinephrine-induced stress model in skin explants, γH2AX immunostaining
Experimental: as §1, §2

[3] = system: G6PDH; assay: Epinephrine-induced stress model in skin explants, G6PDH immunostaining
Experimental: as §1, §2

[4] = system: OR10A6 mRNA; assay: OR10A6 mRNA expression in skin explants (RT-qPCR)
Experimental: (§3) For NHEKs, total RNA was isolated and purified using RNeasy Mini Kit (Qiagen, Hilden, Germany, #74104) following the manufacturer’s protocol. For RNA extraction from skin sections, Trizol (ThermoFisher, Waltham, MA, USA, #15596026) was used following the manufacturer’s protocol. Purity was determined with commercial Agilent kit RNA 6000 Nano Kit (Agilent, Santa Clara, CA, USA, #5067-1511) using Agilent 2100 Bioanalyzer according to the manufacturer’s recommendations and the concentration was quantified with a Nanodrop 2000c (ThermoFisher, Waltham, MA, USA). Real-time quantitative polymerase chain reaction (qRT-PCR) was run in triplicate using TaqMan™ Fast Advanced Master Mix (ThermoFisher, Waltham, MA, USA, #4444557) and gene Expression Assay transcripts (ThermoFisher, Waltham, MA, USA) on the AriaMx Real-time PCR System (Agilent, Santa Clara, CA, USA) according to the manufacturer’s recommendations. Real-time quantification plots and Ct values were collected and stored in AriaMx software (version 2.1). […]
(§4) Human skin explants were recovered from the abdominal tissue of a person and kept in a culture medium at 37 °C, under 5% CO2. […] Each condition was evaluated on 3 different explants and compared to control (untreated explant). […]
(§5) System (Agilent) according to the manufacturer’s recommendations. Real-time quantification plots and Ct values were collected and stored in AriaMx software. […]

[5] = system: OR2AG2 mRNA; assay: OR2AG2 mRNA expression in skin explants (RT-qPCR)
Experimental: as §3, §4, §5

[6] = system: OR11H4 mRNA; assay: OR11H4 mRNA expression in skin explants (RT-qPCR)
Experimental: as §3, §4, §5

[7] = system: OR10A6 protein; assay: OR10A6 protein expression in skin explants (immunohistochemistry)
Experimental: (§6) For immunohistochemical staining on human skin, 5-μm-thick sections were made. The same primary antibodies were used (anti-OR10A6 (1:200; Abcam, #ab129837), anti-OR11H4 (1:200; ThermoFisher, #PA5-562685), anti-OR2AG2 (1:100; ThermoFisher, #PA5-538166)). […] Image processing was performed using ImageJ 2.0 software. […]
as §4
(§7) mounting medium (Santa Cruz, UltraCruz Mounting Medium # sc-24941). […] Cells were observed using a Zeiss microscope and images were analyzed with ImageJ 2.0 software. […]
(§8) observations were realized using an Olympus BX43 microscope. […] Quantification of the proteins of interest (stained purple) was performed through microscopic observation and image analysis. Results were expressed as a percentage of untreated control explants. The relative change (Δ%) between the two tested conditions was also calculated. […]
(§9) AlexaFluor 546 (ThermoFisher, #A11035) goat anti-rabbit IgG secondary antibody, diluted in 1:800 in PBS 1X with 1% BSA, for 1h at room temperature. […] The green channel was used to quantify the fluorescence resulting from OR labelling in the same region. […]

[8] = system: OR2AG2 protein; assay: OR2AG2 protein expression in skin explants (immunohistochemistry)
Experimental: as §6, §4, §7, §8, §9

[9] = system: OR11H4 protein; assay: OR11H4 protein expression in skin explants (immunohistochemistry)
Experimental: as §6, §4, §7, §8, §9

CNC[C@H](O)c1ccc(O)c(O)c1 [epinephrine]
loricrin expression, fold change [1]: 2.3 ± 1.17
γH2AX expression, fold change [2]: 1.7 ± 0.47
G6PDH expression, fold change [3]: 1.26 ± 0.19
OR10A6 mRNA level, fold change [4]: 0.45 ± 0.2
OR2AG2 mRNA level, fold change [5]: 0.51 ± 0.3
OR11H4 mRNA level, fold change [6]: 0.52 ± 0.2
OR10A6 protein expression, relative intensity staining [7]: 0.77 ± 0.34
OR2AG2 protein expression, relative intensity staining [8]: 0.81 ± 0.15
OR11H4 protein expression [9]: No change
